According to patent publication US10970594B2, “Magnetic resonance maps for analyzing tissue” (Tel HaShomer Medical Research Infrastructure and Services …, priority 2011, dated 2021):

Assays:
[1] = tested on: GBM lesion; experiment: Vessel function maps of GBM patients given Bevacizumab IV after failing first line chemoradiation (Example 2, preliminary results); assay type: in vivo, human; details: for change of the lesion in the map: patient #1, GBM lesion of FIG. 8
Description: Two GBM patients who failed first line chemoradiation were given Bevacizumab as an IV infusion, 10 mg/kg body weight every 2 weeks (standard Bevacizumab regimen for GBM patients).
The patients were recruited before Bevacizumab treatment was initiated. They underwent the first MRI exam prior to treatment. Second and third MRI exams are performed 1 week and 1 month after the administration of the first Bevacizumab dose. Two more MRI exams are performed at 3 and 5 months post initiation of treatment.
Vessel function maps were calculated at 15 and 75 min after contrast injection. Examples of two patients with 3 GBM lesions with different presentations of response to Avastin, are shown below. The response pattern to Avastin and the physiological meaning of the observed changes in the maps, are being studied.

[2] = common adverse effects hypertension and proteinuria; thromboembolic disease and hemorrhage infrequent; cited from earlier work
[3] = tested on: recurrent GBM; experiment: Delayed enhancement subtraction maps and T1-weighted MRI of patients treated with bevacizumab (Example 5); assay type: in vivo, human
Description: In the present example, the delayed enhancement subtraction maps of the present embodiments are used for analyzing brain MRI of subjects treated with bevacizumab.
Four patients were subjected to bevacizumab (Avastin®) treatment. High resolution T1-weighted MR images were acquired and subtraction maps were calculated from these images. Acquisition sessions were held before treatment and several times after treatment. The predetermined time interval between two subtracted images was 75 minutes. Histological analysis was performed with tissue samples obtained from the on of these patients which underwent surgery after treatment with Avastin.

[4] = patient #2, FIG. 12, 1 week after the first treatment
[5] = patient of FIGS. 30A-F, at 3 months
[6] = patient of FIGS. 30A-F, first month after initiation of treatment
[7] = patient of FIGS. 31A-F, first 3 months
[8] = patient of FIGS. 32A-H, at 1 month
[9] = patient of FIGS. 32A-H, at 3 months, after re-irradiation
[10] = patient of FIGS. 32A-H, first week

For bevacizumab, the “change of the lesion in the map” value ([1]; 1 month follow-up) was “minor changes”, the “change of the lesion in the map” value ([1]; first week of treatment) was “became more prominently blue” and the blue component ([1]; patient #1, recurrent GBM lesion of FIG. 10, 1 month later) was “increase”. For the same substance, the blue component ([1]; patient #1, recurrent GBM lesion of FIG. 10, first week post treatment) was “decrease”, the blue component [1, 4] was “has not decreased” and the edema [1, 4] was “somewhat relieved”. The “pressure on the brain” value [1, 4] was “relieved”, the “red component of the lesion” value [1, 4] was “significantly decreased” and the blue component ([1]; patient #2, FIG. 12, 3-months follow-up, in parallel to clinical deterioration, no sign of progression on conventional MRI) was “continued to increase”. The tolerability [2] was “generally well tolerated”, the “enhancing lesion decreased by, of its original volume” value [3, 5] was “about 57%” and the “red volume decreased by” value [3, 5] was “about 40%”. For the same substance, the “blue volume increased by” value ([3]; patient of FIGS. 30A-F, at 3 months, suggesting progression) was “about 25%”, the blue volume [3, 6] was “stable” and the “enhancing lesion volume (on T1-Gd) decreased by” value [3, 6] was “about 50%”. The “red volume decreased by” value [3, 6] was “about 50%”, the blue volume ([3]; patient of FIGS. 31A-F, 5 months MRI, after re-irradiation during bevacizumab treatment) was “decreased significantly” and the blue volume [3, 7] was “increased significantly”. The edema [3, 7] was “decreased”, the “lesion volume on T1-Gd” value [3, 7] was “stable” and the “blue volume increased by” value [3, 8] was 200%. For the same substance, the “enhancing volume increased by” value [3, 8] was 70%, the “red volume decreased by” value [3, 8] was “about 50%” and the “blue volume increased by” value [3, 9] was “over 500%”. For the same substance, the “enhancing lesion volume increased by” value [3, 9] was “over 500%”, the “red volume increased by” value [3, 9] was “over 500%” and the “blue volume decreased by” value [3, 10] was 20%. The “enhancing lesion volume (on T1-Gd)” value [3, 10] was “stable” and the “red volume increased by” value [3, 10] was 30%.
